# Measured values: PubChem BioAssay (NCI)
#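 Assay format: 96-well plates, 48-hour exposure. GI50: concentration for 50% inhibition of growth. At the TGI there is no net growth.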
# What was measured:
# Test in all cases: NCI tumour cell line growth inhibition, 48 h
# [1] = test system: HCT-15 colon
# [2] = test system: SN12C renal
# [3] = test system: K-562 leukemia
# [4] = test system: 786-0 renal
# [5] = test system: A549 NSCLC
# [6] = test system: NCI-H460 lung
# [7] = test system: LOX IMVI melanoma
# [8] = test system: SR leukemia
# [9] = test system: CAKI-1 renal
# [10] = test system: DU-145 prostate
Structure (SMILES),TGI [1] [µM],TGI [2] [µM],TGI [3] [µM],TGI [4] [µM],TGI [5] [µM],TGI [6] [µM],GI50 [1] [µM],GI50 [2] [µM],GI50 [7] [µM],TGI [7] [µM],GI50 [3] [µM],GI50 [4] [µM],GI50 [8] [µM],TGI [8] [µM],GI50 [9] [µM],TGI [9] [µM],GI50 [5] [µM],GI50 [6] [µM],TGI [10] [µM],GI50 [10] [µM]
COCCCNC(=O)C1C(=O)N(CCCOC)C(=O)/C1=N\N (stereo not given),> 100,> 100,> 100,> 100,> 100,> 100,,,,,,,,,,,,,,
CC(=O)[CH-]C(C)=O.CC(=O)[CH-]C(C)=O.[CH2-]CCC.[CH2-]CCC.[Sn+4],1.99,1.67,> 100,1.56,4.15,2.9,0.68,0.346,0.174,0.464,0.283,0.351,0.382,> 100,0.151,0.874,1.88,1.39,,
c1cc(N(CCn2cccn2)CCn2cccn2)cc(N(CCn2cccn2)CCn2cccn2)c1,> 100,> 100,> 100,> 100,> 100,> 100,,,,> 100,,,,> 100,,> 100,,,,
CCC[CH2][Sn]1([CH2]CCC)[O]CC(Cc2ccccc2)[O]1 (stereo not given),5.82,11.7,6.64,3.73,28.9,23.4,2.24,3.5,1.68,3.63,1.67,1.86,1.35,4.84,1.51,4.45,15.3,11,,
Cc1ccc(S(=O)(=O)NC(=O)C2C(=O)CC3(CCCCC3)CC2=O)cc1,62.4,86.4,> 100,> 100,> 100,74.9,,,,> 100,,,,,,65.9,,,> 100,
CCC[CH2][Sn]([CH2]CCC)([CH2]CCC)[O]c1ccc(Cl)cc1Cl,0.333,0.303,0.408,0.266,0.345,0.25,0.156,0.142,0.111,0.253,0.12,0.135,,,0.0878,0.258,0.159,0.0977,0.271,0.13
COc1ccc2c(c1)N1CCc3cc(OC)c(OC)cc3C1C2 (stereo not given),,> 100,> 100,> 100,> 100,> 100,,,,> 100,,,,> 100,,> 100,,,,
Cc1sc2nc(-c3ccncc3)c(/C=N/N=C(N)N)n2c1C,> 100,51.6,> 100,92.1,,> 100,> 100,16.9,28.2,78,34.7,32.2,,,40.8,> 100,,27.3,> 100,50.8
CN(C)CC(C)(C)C(=O)/C=C/c1ccc(/C=C/C(=O)C(C)(C)CN(C)C)cc1,5.49,3.55,0.594,3.08,7.4,13.9,,,,1.69,,,,5.45,,2.9,,,,
COc1ccc(-c2cc(=O)c3ccc(C)nc3[nH]2)cc1,> 100,> 100,> 100,> 100,> 100,> 100,,,,> 100,,> 100,,,,> 100,,> 100,> 100,
Cc1[nH]c2ccccc2c1C(=O)CC1(O)C(=O)Nc2ccccc21 (stereo not given),> 100,> 100,> 100,> 100,> 100,> 100,,,,> 100,,,,> 100,,> 100,,,,
O=C(O)CCCCCCC[C@H]1S[C@H]1CCCCCCO,> 100,,> 100,> 100,,,,,,,,,,> 100,,> 100,,,,
COc1ccc(S(=O)(=O)Nc2ccccc2C(=O)O)cc1,> 100,> 100,> 100,> 100,> 100,> 100,,,,> 100,,,,,,> 100,,,,
C=C(COC(C)=O)CC(OC(C)=O)c1ccccc1 (stereo not given),> 100,> 100,> 100,> 100,> 100,> 100,,,,> 100,,,,,,,,,,
CC1CCC2(CC1)NN=c1s/c(=C\c3ccc(O)cc3)c(=O)n1N2 (stereo not given),,> 100,> 100,> 100,> 100,> 100,,,,> 100,,,,,,,,,,
COc1ccc2c(c1)C(=O)c1c-2n(CCCN=[N+]=[N-])c(=O)c2cc(OC)c(OC)cc12,> 100,> 100,,89.5,> 100,> 100,> 100,64.7,25.1,> 100,,26.7,,,3.82,24.6,33,7.99,> 100,26.6
COc1ccc(OC)c2c1CC(C(=O)O)(C(=O)O)CC2=O,> 100,> 100,> 100,> 100,> 100,,,,,> 100,,,,,,> 100,,,,
COc1ccc(OC)c(/C(C)=N/NC(N)=S)c1,> 100,> 100,> 100,> 100,> 100,> 100,,,,> 100,,,,> 100,,> 100,,,,
COC(=O)N(C(=O)OC)C(C(=O)O)C(C)C (stereo not given),,> 100,,> 100,> 100,> 100,,,,> 100,,,,,,> 100,,,,
Fc1ccc2[nH]cc(-c3nonc3-c3c[nH]c4ccc(Br)cc34)c2c1,3.29,12.5,7.38,4.5,7.99,4.88,1.64,3.13,,,2.22,2.16,,,2.89,13.8,2.87,2.07,13.2,3.57
C[N-]c1nnnn1C.[Au+].c1ccc([PH+](c2ccccc2)c2ccccc2)cc1,5.72,7.92,2.88,3.12,68.7,52.7,2.17,3.46,2.12,5.77,0.518,1.74,1.11,4.12,2.39,5,14.7,8.54,,
CC(C)CC(NC(=O)c1cccc(O)c1O)C(=O)NCc1cc(CNC(=O)C(CC(C)C)NC(=O)c2cccc(O)c2O)cc(CNC(=O)C(CC(C)C)NC(=O)c2cccc(O)c2O)c1 (stereo not given),> 100,56.3,> 100,> 100,50.3,> 100,,,,25.6,,,,32.2,,> 100,,,,
O=c1nc(/C=C/c2ccccc2Cl)cc2n1CCN2CCO,> 100,> 100,> 100,> 100,,> 100,,,,> 100,,,,> 100,,> 100,,,,
O=C1c2ccccc2C(Br)(Br)c2ccccc21,> 31.6,> 31.6,> 31.6,> 31.6,> 31.6,> 31.6,,,,> 31.6,,,,> 31.6,,,,,,
COc1cc(NC(N)=NCCC(C)(C)Oc2ccc(C(F)(F)F)cc2)ncc1C#N,3.07,3.35,,3.14,3.18,3.39,1.65,1.85,1.6,3.01,,1.61,,,1.55,2.9,1.73,1.72,3.12,1.72
Cc1cc2c(ccc3c(C)cc(=O)oc32)o1,> 100,> 100,> 100,> 100,> 100,> 100,,,,> 100,,,,> 100,,> 100,,,,
Cc1ccc(-c2csc(/N=C3\C(=O)Nc4ccccc43)n2)cc1,10.4,,> 100,3.28,11.3,3.74,2.37,,1.28,2.8,1.73,1.63,,,,,2.98,1.76,5.99,2.16
COc1ccc(Nc2nc3ccc(C(F)(F)F)cc3nc2-c2ccccc2)cc1OC,> 100,> 100,> 100,72.7,> 100,37.1,,,,31.6,,,,> 100,,86.1,,,,
CCCCCC[N+](C)(C)Cc1ccc(C[N+](C)(C)CCCCCC)cc1,23.7,12.7,5.65,18.1,12.8,6.03,,,,,,,,5.08,,14.6,,,,
